Assays:
[1] = tested on: L1210 murine leukemia cells; experiment: L1210 murine leukemia model, survival of tumor-bearing mice; assay type: in vivo, BDF1 mice; conditions: mitomycin C 40 ug IP day 6 followed by CRX-527-AF 100 ug IP day 7; compared to either component alone; through day 54
Description: To investigate whether a combination treatment consisting of the chemotherapeutic mitomycin C and the AGP CRX-527 would prolong survival of cancer-bearing mice better than either treatment alone, BDF1 mice (10 per group) that had been seeded with L1210 murine leukemia cells (10^4 tumor cells via the intraperitoneal (IP) route) on day 0 were treated with, 1) nothing (untreated control), 2) an intraperitoneal injection of mitomycin C (40 ug) on day 6, 3) an IP injection of CRX-527-AF (100 ug CRX-527 in Aqueous Formulation (AF), which is 0.02% dipalmitoyl phosphatidyl choline in water) on day 7, or 4) an IP injection of mitomycin C on day 6 followed by an IP injection of CRX-527-AF on day 7. Survival curves through day 54 are presented for each group in FIG. 1.

[2] = tested on: Mouse Ovarian Tumor (MOT) cells; experiment: Mouse Ovarian Tumor (MOT) model, survival, wild-type TLR4 mice; assay type: in vivo, C3H/FeJ, C3H/HeOuJ, C3H/HeN mice; conditions: for protection (survival): 1 and 10 ug doses IP day 7 after mitomycin C day 6
Description: To determine whether the timing of administration of the chemotherapeutic and TLR4 ligand is important for the anti-cancer response, C3H/FeJ mice (10 per group) seeded with Mouse Ovarian Tumor (MOT) cells (10^4 tumor cells via the IP route) on day 0 were treated with, 1) nothing (untreated control), 2) mitomycin C (40 ug) on day 6, 3) CRX-527-SE (10 ug in a Stable Emulsion formulation containing 2% squalene oil-in-water) on day 4 followed by mitomycin C on day 6, 4) CRX-527-SE on day 5 followed by mitomycin C on day 6, 5) both CRX-527-SE and mitomycin C on day 6, 6) mitomycin C on day 6 followed by CRX-527-SE on day 7, 7) mitomycin C on day 6 followed by CRX-527-SE on day 10, and 8) mitomycin C on day 6 followed by CRX-527-SE on day 11. The dose/route for mitomycin C and CRX-527-SE administration was always 40 ug IP and 10 ug IP, respectively.
The effect of formulation for the anti-cancer activity observed with CRX-527 was evaluated in the MOT tumor model. In the experiment shown in FIG. 5, C3H/HeN mice (wild-type TLR4, 10 per group) were seeded with MOT tumor (10^4 tumor cells IP) on day 0. Mitomycin C (40 ug IP) was administered on day 6, and 1 or 10 ug CRX-527 formulated in AF (Aqueous Formulation=0.02% dipalmitoyl phosphatidyl choline in water), IN (Intranasal Formulation=2% glycerol in water) or SE (Stable Emulsion=2% squalene oil-in-water) was administered via the IP route on day 7. […] The results of this experiment indicate that the potency of CRX-527 in this model can be enhanced through formulation.
Group size was 10 in this experiment. […]

[3] = tested on: Mouse Ovarian Tumor (MOT) cells; experiment: MOT model in TLR4 mutant (non-responder) mice, survival; assay type: in vivo; conditions: MOT-bearing C3H/HeJ TLR4 mutant mice
B16-F10 melanoma cells [4] = experiment: B16-F10 melanoma lung metastasis, lung tumor burden; assay type: in vivo, BDF1 mice; conditions: CRX-527-SE 10 ug IV and cyclophosphamide 4 mg IP on day 1
Description: In further experimentation, B16-F10 melanoma cells transfected with green fluorescent protein were used to quantify metastasis of the tumor to the lungs of mice. Because green fluorescent protein allows quantification of the amount of tumor in the lungs of B16-F10-bearing mice, it was possible to evaluate the efficacy of various treatment regimens using lung tumor burden as the read-out. BDF1 mice were seeded with B16-F10 melanoma cells (1.5×10^3 IV) on day 0. […] On day 26, the mice were sacrificed and their lungs were collected. The lungs from each mouse were photographed and then homogenized so that the luciferase activity could be quantified to determine how much B16-F10 tumor was present. […] This observation was confirmed when the lungs were homogenized and evaluated for luciferase activity.

4T1 tumor cells = experiment: 4T1 murine breast cancer model, survival after removal of primary tumor; assay type: in vivo, BALB/c Mice; conditions: cyclophosphamide 3 mg IP and CRX-527 various doses IV on day 15; vs vehicle or cyclophosphamide alone
Description: The benefit of combining chemotherapeutic agents with TLR4 ligands such as AGPs was also confirmed in the 4T1 murine breast cancer model. For the experiments conducted using this metastatic cancer model, 4T1 tumor cells (7×10^3 in 50 uL) were injected into the lower mammary gland of each mouse on day 0. The primary tumors were surgically removed on day 14, the mice (10 per group) were treated on day 15 with vehicles, cyclophosphamide (3 mg IP) or cyclophosphamide (3 mg IP) and CRX-527 (various doses IV).

[5] = tested on: CT-26 colorectal tumor cells; experiment: CT-26 syngeneic colon carcinoma model, escalating i.p. doses (Example 9); assay type: in vivo, Balb/c mice; conditions: CRX-527 4, 20, 100 ug per mouse i.p. biweekly
Description: The CT26 mouse colon carcinoma (CT26.WT; ATCC #CRL-2638) cell line was obtained from ATCC. It is an N-nitroso-N-methylurethane-(NNMU) induced, undifferentiated colon carcinoma cell line known in the art. For example, it is described in: Wang M, et al. Active immunotherapy of cancer with a nonreplicating recombinant fowlpox virus encoding a model tumor-associated antigen. J. Immunol. 154: 4685-4692, 1995 (PubMed: 7722321), which is incorporated by reference in its entirety herein. For preparation of tumor cells, A frozen (−140° C.) vial of CT-26 (mouse colon carcinoma cells), from ATCC (cat # CRL-2638, lot #59227052) are thawed and cultured in basic RPMI (with 10% FBS) media over the following week.
CT-26 cells (passage 12) are harvested from the flask in complete medium. Cells are centrifuged and resuspended in RPMI (without FBS), this step is repeated 3 times. Cell density and viability are checked via trypan blue exclusion. Cells are then diluted to desired density (5×10^5 cells per mL) and kept on ice.
Escalating doses of CRX 527 are evaluated for their efficacy in reducing tumor growth. Animals are weighed and innoculated on the right hind quarter with 0.5×10^5 CT26 tumor cells per mouse on Day 0. A total of 130 mice are inoculated with tumor cells—assuming 30% failure rate (either too big or too small at time of start of study), the goal is to have n=10 for each group. After tumor cell innoculation, tumor growth and total body weight are measured 3 times a week for the duration of the study. Randomization occurs on day 10 or 11 when the average tumor volume is approximately 100 mm^3. Begining on the day of randomization, animals are dosed with CRX 527 or vehicle i.p. biweekly, for a total of 6 doses. Mice remain on study until tumors reach >2000 cu mm for two consecutive measurements, they are removed from study for other reasons (i.e. weight loss >20%, ulceration on tumor, etc.) or until the end of the study. After euthanization the tumors may be removed and subject to dissociation for flow analysis and/or FFPE for IHC analysis.
The above protocol was used to generate the results in FIG. 17 at the dosages indicated. In almost every case, Balb/c mice that were inoculated with 0.5×10^5 CT-26 colorectal tumor cells on the right hind quarter developed tumors that, when treated i.p. with vehicle (2% glycerol) only, and progressed as expected. […] FIG. 17.

[6] = tested on: Mouse Ovarian Tumor (MOT) cells; experiment: Mouse Ovarian Tumor (MOT) model, survival, wild-type TLR4 mice; assay type: in vivo, C3H/FeJ, C3H/HeOuJ, C3H/HeN mice
B16-F10 melanoma cells [7] = experiment: B16-F10 murine melanoma model, survival; assay type: in vivo, BDF1 mice; conditions: cyclophosphamide alone 3 mg IP on day 5
Description: The efficacy of combination therapy with a chemotherapeutic agent and an AGP was also tested in a murine melanoma model using a non-immunogenic tumor called B16-F10. In these experiments, BDF1 mice were seeded with B16-F10 melanoma cells (1.5×10^3 IV) on day 0. At various time thereafter, cancer-bearing mice were treated with cyclophosphamide (aka Cytoxan) alone (3 mg IP), CRX-527-IN (10 ug) alone or a combination of the two agents.

Structure (SMILES): CCCCCCCCCCC[C@H](CC(=O)N[C@H]1[C@H](OC[C@H](NC(=O)C[C@@H](CCCCCCCCCCC)OC(=O)CCCCCCCCC)C(=O)O)O[C@H](CO)[C@@H](OP(=O)(O)O)[C@@H]1OC(=O)C[C@@H](CCCCCCCCCCC)OC(=O)CCCCCCCCC)OC(=O)CCCCCCCCC [CRX-527]
- survival [1]: significantly prolonged survival
- dose required to induce a high level of protection ([2]; AF formulation (0.02% dipalmitoyl phosphatidyl choline in water), IP day 7 after mitomycin C day 6): 10 µg
- survival times ([2]; C3H/FeJ mice, CRX-527-SE 10 ug IP at the same time as or up to 5 days after mitomycin C 40 ug IP (day 6), vs untreated, mitomycin alone or CRX527-SE followed by mitomycin C): significantly prolonged survival times
- survival ([2]; C3H/HeN mice, CRX-527 1 or 10 ug IP day 7, one day after mitomycin C 40 ug IP): prolonged survival
- potency compared to the AF formulation ([2]; IN formulation (2% glycerol in water), IP day 7 after mitomycin C day 6): enhanced potency
- protection (survival) ([2]; IN formulation): highly effective
- potency compared to the AF formulation ([2]; SE formulation (2% squalene oil-in-water), IP day 7 after mitomycin C day 6): enhanced potency
- protection (survival) ([2]; SE formulation): highly effective
- survival ([2]; both mitomycin C and CRX-527, compared to either component alone): significantly prolonged survival
- survival [3]: did not promote survival
- luciferase activity in homogenized lungs (B16-F10 melanoma cells [4]; day 26, vs vehicle or either agent alone): significantly less luciferase activity
- lung tumor burden by visual examination (B16-F10 melanoma cells [4]; lungs collected day 26): lower lung tumor burden than any other group
- survival times (4T1 tumor cells): longer survival times
- survivability [5]: Dose dependence was also seen
- tumor growth ([5]; 6 doses, compared to vehicle (2% glycerol)): inhibited tumor growth in a dose dependent manner
- survival ([6]; C3H/HeOuJ wild-type mice, alone or in combination with mitomycin C): promoted survival
- resistance to re-challenge with the same tumor ([6]; mice cured of MOT tumor by combination treatment with mitomycin C and CRX-527, compared to naive control mice): resistant to re-challenge

Structure (SMILES): O.O=P1(N(CCCl)CCCl)NCCCO1 (stereo not shown) [cyclophosphamide, 2-[bis(2-chloroethyl)amino]tetrahydro-2H-1,3,2-oxazaphosphorine 2-oxide monohydrate]
- survival (B16-F10 melanoma cells [7]): modest prolongation

Structure (SMILES): CO[C@@]12[C@H](COC(N)=O)C3=C(C(=O)C(C)=C(N)C3=O)N1C[C@@H]1N[C@@H]12 [mitomycin C, reference compound]
- survival ([2]; C3H/HeN mice, mitomycin C alone 40 ug IP day 6, compared to no treatment control): small increase in survival

Source: patent publication US10765690B2, “TLR4 agonists and compositions thereof and their use in the treatment of cancer” (GlaxoSmithKline Intellectual Property Development Limited, priority 2015, dated 2020)
